One assay deals with T1, hS1P1R (hEdg1) (Homo sapiens, UniProt P21453).
T1 construct: purchased Lonza
The experiment in a line: hS1P1R GTPγS Binding Assay (Assay 3a). Type of assay: biochemical. The method, then: The hS1P1R GTPγS binding assay was carried out at room temperature in 96 well non-binding surface assay plates. The reaction in each well contained 4 μg hS1P1R (hEdg1) membrane protein (Lonza), 30 μM GDP, 0.1 nM [^35S]GTPγS, 0.25% fatty acid free BSA, and serially diluted hS1P1R agonist compound in 200 μL assay buffer (25 mM Tris-HCl PH 7.9, 100 mM NaCl, 3 mM MgCl2, and 0.2 mM EGTA). After one hour of incubation, 0.9 mg of WGA (Wheat Germ Agglutinin) SPA beads in 50 μL of assay buffer was added to each well. The SPA beads were spun down after an additional one hour incubation. The radioactivity of the bound GTPγS was counted by reading the assay plate using a MicroBeta.
Assay 1 is the CNG cAMP Assay as described in Biological Example 1. Assay 2a and 2b are the Tango™ β-arrestin Recruitment Assay in HEK293 and U2OS cells, respectively, as described in Biological Example 2. Assay 3a is the hS1P1R GTPγS Binding Assay as described in Biological Example 3. Assay 3b is the GTP-Eu Binding Assay as described in Biological Example 3. EC50's were measured unless otherwise noted. […] In the table, “nt” means the Compound was not tested and “no” means the compound was tested but had no measurable activity under the assay conditions employed.

Assay [1] addresses T2, S1P1 (Homo sapiens, UniProt P21453). The experiment in a line: Tango β-arrestin Recruitment Assay in U2OS cells (Assay 2b). Also on record: linker with TEV protease (N1a) cleavage site (C). The conditions noted are these: Tango β-arrestin Recruitment Assay, read-out: Assay 2b EC50. Type of assay: cell-based. In a few lines: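 U2OS cells expressing S1P1 and reporter, serum-starved 48 h, treated with compound (10-point 3-fold series, top 1 μM, 1% DMSO) overnight at 37 °C; β-lactamase substrate added 2 h at room temperature. F460/F530 ratio normalised to 1 μM S1P (100%) and DMSO; EC50 from concentration-response.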
Target sequence in this assay (P21453 whole entry): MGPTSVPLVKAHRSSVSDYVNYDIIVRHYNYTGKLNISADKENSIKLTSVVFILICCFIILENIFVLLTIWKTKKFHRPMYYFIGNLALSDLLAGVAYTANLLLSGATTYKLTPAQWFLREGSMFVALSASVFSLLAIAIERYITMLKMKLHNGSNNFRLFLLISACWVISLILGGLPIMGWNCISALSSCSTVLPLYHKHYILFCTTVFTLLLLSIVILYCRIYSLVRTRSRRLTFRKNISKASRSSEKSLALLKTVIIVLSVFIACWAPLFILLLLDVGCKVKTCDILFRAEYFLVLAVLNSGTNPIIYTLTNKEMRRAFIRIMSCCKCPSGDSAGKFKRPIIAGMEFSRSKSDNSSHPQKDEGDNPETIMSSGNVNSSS
Target sequence in this assay (P32121 whole entry partner): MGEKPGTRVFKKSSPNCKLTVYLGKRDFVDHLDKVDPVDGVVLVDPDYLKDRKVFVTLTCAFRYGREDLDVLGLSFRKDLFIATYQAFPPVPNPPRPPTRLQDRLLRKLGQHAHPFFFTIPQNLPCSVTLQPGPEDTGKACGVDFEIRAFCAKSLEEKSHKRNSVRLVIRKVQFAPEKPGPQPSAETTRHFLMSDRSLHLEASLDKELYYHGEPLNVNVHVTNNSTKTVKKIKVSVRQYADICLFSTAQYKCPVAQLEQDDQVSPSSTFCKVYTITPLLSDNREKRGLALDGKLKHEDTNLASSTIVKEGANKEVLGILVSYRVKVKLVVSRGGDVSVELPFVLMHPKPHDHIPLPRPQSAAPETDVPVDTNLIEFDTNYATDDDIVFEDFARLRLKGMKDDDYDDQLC
In general terms: Recruitment of arrestin is a read-out of receptor activation apart from second messengers.

Assay [2] addresses T2, S1P1. The experiment in a line: Tango β-arrestin Recruitment Assay in HEK293 cells (Assay 2a). The conditions noted are these: Tango β-arrestin Recruitment Assay, read-out: Assay 2a EC50. Type of assay: cell-based. Set-up: linker with TEV protease (N1a) cleavage site (C); host or cells: HEK293, transiently transfected. In a few lines: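 HEK293 cells transiently expressing S1P1 (TEV-cleavable tTA fusion) with β-arrestin2–TEV; compounds up to 10 μM, 10-point 3-fold, 1% DMSO, 30 min then 16–18 h at 37 °C. Luciferase luminescence normalised to 5 μM S1P as 100% and DMSO as background; EC50 from percent-activity curves.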
Target sequence in this assay (P21453 whole entry): as the sequence (P21453 whole entry) above
Target sequence in this assay (P32121 whole entry partner): as the sequence (P32121 whole entry partner) above

The target in assay [3] is T2, S1P1. The experiment in a line: CNG cAMP Assay (Assay 1). Set-up: host or cells: HEK293 cells expressing the CNG channel. Type of assay: cell-based. Conditions: read-out: Assay 1 EC50. In a few lines:
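HEK293 cells expressing CNG channel and S1P1, membrane-potential dye loaded; compounds (top 10 μM, 10-point 3-fold, 1.8% DMSO) added with 25 μM Ro 20-1724, 500 nM NECA and 10 nM S1P for 90 min. T90/T0 fluorescence (Ex 350/Em 590 nm) normalised to NECA-alone vs DMSO; EC50 fitted.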
Target sequence in this assay (P21453 whole entry): as the sequence (P21453 whole entry) above

The text below walks through data of patent publication US20100160369A1, “S1P1 Agonists and Methods of Making And Using” (EXELIXIS, INC., priority 2008, published 2010).

T1 sequence (P21453 whole entry): as above

As for `OC[C@H](O)COc1cc(Cl)c(-c2noc(-c3cn4cc(C(F)(F)F)cc(Br)c4n3)n2)cc1Cl` [Entry 33], the EC50 at hS1P1R (hEdg1), at S1P1 [1] and on S1P1 [2] was no more than 100 nM in each case.

For the compound `C[C@H](O)COc1cc(Cl)c(-c2noc(-c3cn4cc(C(F)(F)F)cc(Cl)c4n3)n2)cc1Cl` [Entry 38], the EC50 at hS1P1R (hEdg1), on S1P1 [1] and on S1P1 [2] was no more than 100 nM throughout.

As to `OC[C@H](O)COc1cc(Cl)c(-c2noc(-c3cn4cc(C(F)(F)F)cc(Cl)c4n3)n2)cc1Cl` [Entry 39], the EC50 on hS1P1R (hEdg1), at S1P1 [1], on S1P1 [3] and on S1P1 [2] was no more than 100 nM each time.

Take `OCC(O)COc1cc(Cl)c(-c2nc(-c3cn4cc(C(F)(F)F)cc(Cl)c4n3)no2)cc1Cl` (centres unmarked) [Entry 50]: the concentration giving a half-maximal response (EC50) at hS1P1R (hEdg1), at S1P1 [1] and on S1P1 [2] was no more than 100 nM in each case.

For `O=C(O)CCc1cc(Cl)c(-c2noc(-c3cn4cc(C(F)(F)F)cc(Br)c4n3)n2)cc1Cl` [Entry 68], the EC50 at hS1P1R (hEdg1), on S1P1 [1], at S1P1 [3] and at S1P1 [2] was no more than 100 nM each time.

On to `OCCCOc1cc(Cl)c(-c2noc(-c3cn4cc(C(F)(F)F)cc(Cl)c4n3)n2)cc1Cl` [Example 105, 3-[(2,5-dichloro-4-{5-[8-chloro-6-(trifluoromethyl)imidazo[1,2-a]pyridin-2-yl]-1,2,4-oxadiazol-3-yl}phenyl)oxy]propan-1-ol], for which the EC50 at hS1P1R (hEdg1), at S1P1 [1] and at S1P1 [2] was no more than 100 nM each time.

As for `OC(CF)COc1cc(Cl)c(-c2noc(-c3cn4cc(C(F)(F)F)cc(Cl)c4n3)n2)cc1Cl` (centres unmarked) [Example 118, 1-[(2,5-dichloro-4-{5-[8-chloro-6-(trifluoromethyl)imidazo[1,2-a]pyridin-2-yl]-1,2,4-oxadiazol-3-yl}phenyl)oxy]-3-fluoropropan-2-ol], the EC50 on hS1P1R (hEdg1), on S1P1 [1] and on S1P1 [2] was no more than 100 nM in each case.

With `CC(C)(O)COc1cc(Cl)c(-c2noc(-c3cn4cc(C(F)(F)F)cc(Cl)c4n3)n2)cc1Cl` [Example 166, 1-[(2,5-dichloro-4-{5-[8-chloro-6-(trifluoromethyl)imidazo[1,2-a]pyridin-2-yl]-1,2,4-oxadiazol-3-yl}phenyl)oxy]-2-methylpropan-2-ol], the EC50 (as a rule, the concentration needed to bring the measured effect to its halfway point) on hS1P1R (hEdg1) is 100 to 500 nM; at S1P1 [1], no more than 100 nM; at S1P1 [2], no more than 100 nM.

As to `OCCCc1cc(Cl)c(-c2noc(-c3cn4cc(C(F)(F)F)cc(Cl)c4n3)n2)cc1Cl` [Example 167, 3-(2,5-dichloro-4-{5-[8-chloro-6-(trifluoromethyl)imidazo[1,2-a]pyridin-2-yl]-1,2,4-oxadiazol-3-yl}phenyl)propan-1-ol], the half-maximal effective concentration (EC50) at hS1P1R (hEdg1), on S1P1 [1] and on S1P1 [2] was no more than 100 nM throughout.

In the case of `OCC(O)COc1ccc(-c2noc(-c3cn4cc(C(F)(F)F)cc(Cl)c4n3)n2)c(Cl)c1` (centres unmarked) [Example 194, 3-[(3-chloro-4-{5-[8-chloro-6-(trifluoromethyl)imidazo[1,2-a]pyridin-2-yl]-1,2,4-oxadiazol-3-yl}phenyl)oxy]propane-1,2-diol], the figures for the EC50 at hS1P1R (hEdg1), at S1P1 [3] and on S1P1 [2] were 500 to 1000 nM, no more than 100 nM and no more than 100 nM, respectively.

Turning to `Cc1cc(CCC(=O)O)c(Cl)cc1-c1noc(-c2cn3cc(C(F)(F)F)cc(Br)c3n2)n1` [Example 196, 3-(4-{5-[8-bromo-6-(trifluoromethyl)imidazo[1,2-a]pyridin-2-yl]-1,2,4-oxadiazol-3-yl}-2-chloro-5-methylphenyl)propanoic acid], the EC50 at hS1P1R (hEdg1), at S1P1 [1], on S1P1 [3] and at S1P1 [2] was no more than 100 nM throughout.

In the case of `OCC(O)COc1cc(Cl)c(-c2noc(-c3cn4cc(C(F)(F)F)cc(Cl)c4n3)n2)cc1F` (centres unmarked) [Example 198, 3-[(5-chloro-4-{5-[8-chloro-6-(trifluoromethyl)imidazo[1,2-a]pyridin-2-yl]-1,2,4-oxadiazol-3-yl}-2-fluorophenyl)oxy]propane-1,2-diol], the EC50 on hS1P1R (hEdg1), on S1P1 [3] and on S1P1 [2] was no more than 100 nM each time.

Take `OCC(O)COc1cc(Cl)c(-c2noc(-c3cn4cc(C(F)(F)F)cc(Br)c4n3)n2)cc1Cl` (centres unmarked) [Example 212, 3-[(4-{5-[8-bromo-6-(trifluoromethyl)imidazo[1,2-a]pyridin-2-yl]-1,2,4-oxadiazol-3-yl}-2,5-dichlorophenyl)oxy]propane-1,2-diol]: the EC50 on hS1P1R (hEdg1), on S1P1 [1] and on S1P1 [2] was no more than 100 nM throughout.

As for `OC[C@H](O)COc1cc(Cl)c(-c2nnc(-c3cn4cc(C(F)(F)F)cc(Cl)c4n3)s2)cc1Cl` [Example 252, (25)-3-[(2,5-dichloro-4-{5-[8-chloro-6-(trifluoromethyl)imidazo[1,2-a]pyridin-2-yl]-1,3,4-thiadiazol-2-yl}phenyl)oxy]propane-1,2-diol], the EC50 was 500 to 1000 nM on hS1P1R (hEdg1), no more than 100 nM on S1P1 [1], no more than 100 nM on S1P1 [3] and no more than 100 nM on S1P1 [2].

For `OCCOc1cc(Cl)c(-c2noc(-c3cn4cc(C(F)(F)F)cc(Br)c4n3)n2)cc1Cl` [Example 277, 2-[(4-{5-[8-bromo-6-(trifluoromethyl)imidazo[1,2-a]pyridin-2-yl]-1,2,4-oxadiazol-3-yl}-2,5-dichlorophenyl)oxy]ethanol], the EC50 at hS1P1R (hEdg1), on S1P1 [1] and on S1P1 [2] was no more than 100 nM in each case.

`OCC(CO)COc1cc(Cl)c(-c2noc(-c3cn4cc(C(F)(F)F)cc(Cl)c4n3)n2)cc1Cl` [Example 278, 2-{[(2,5-dichloro-4-{5-[8-chloro-6-(trifluoromethyl)imidazo[1,2-a]pyridin-2-yl]-1,2,4-oxadiazol-3-yl}phenyl)oxy]methyl}propane-1,3-diol]: the EC50 on hS1P1R (hEdg1), at S1P1 [1] and at S1P1 [2] was no more than 100 nM throughout.

Take `O=C(O)CCc1cc(Cl)c(-c2nnc(-c3cn4cc(C(F)(F)F)cc(Br)c4n3)s2)cc1Cl` [Example 286, 3-(4-{5-[8-bromo-6-(trifluoromethyl)imidazo[1,2-a]pyridin-2-yl]-1,3,4-thiadiazol-2-yl}-2,5-dichlorophenyl)propanoic acid]: the EC50 was 1000 to 5000 nM at hS1P1R (hEdg1), no more than 100 nM at S1P1 [1] and no more than 100 nM at S1P1 [2].

`CC(C)(O)COc1cc(Cl)c(-c2noc(-c3cn4cc(C(F)(F)F)cc(Br)c4n3)n2)cc1Cl` [Example 287, 1-[(4-{5-[8-bromo-6-(trifluoromethyl)imidazo[1,2-a]pyridin-2-yl]-1,2,4-oxadiazol-3-yl}-2,5-dichlorophenyl)oxy]-2-methylpropan-2-ol]: the EC50 at hS1P1R (hEdg1) was 100 to 500 nM; at S1P1 [1], no more than 100 nM; at S1P1 [2], no more than 100 nM.

`OCCOc1cc(Cl)c(-c2noc(-c3cn4cc(C(F)(F)F)cc(Cl)c4n3)n2)cc1Cl` [Example 288, 2-[(2,5-dichloro-4-{5-[8-chloro-6-(trifluoromethyl)imidazo[1,2-a]pyridin-2-yl]-1,2,4-oxadiazol-3-yl}phenyl)oxy]ethanol]: the EC50 at hS1P1R (hEdg1), at S1P1 [1], at S1P1 [3] and at S1P1 [2] was no more than 100 nM in each case.

Turning to `C[C@@H](O)COc1cc(Cl)c(-c2noc(-c3cn4cc(C(F)(F)F)cc(Cl)c4n3)n2)cc1Cl` [Example 295, (2R)-1-[(2,5-dichloro-4-{5-[8-chloro-6-(trifluoromethyl)imidazo[1,2-a]pyridin-2-yl]-1,2,4-oxadiazol-3-yl}phenyl)oxy]propan-2-ol], the half-maximal effective concentration (EC50) on hS1P1R (hEdg1), at S1P1 [1] and on S1P1 [2] was no more than 100 nM in each case.
